Reference: US20110105550A1 (SALIX PHARMACEUTICALS, LTD., priority 2008, published 2011)
“Also recorded” adds a separate entry of the source. Blank lines part the entries; values can stand above or below the molecule they belong to.

Experiments:
Type in all cases: physicochemical
[1] = Rifaximin drying experiments, solid form by XRPD
[2] = Stressing under various relative humidities (RH), solid form by XRPD
Source text: The jar was sealed and stored at either ambient temperature or in an oven at elevated temperature.

[3] = Dynamic vapor sorption/desorption (DVS) of amorphous preparations
Experimental: Based on the data, relative humidity stressing studies of the two amorphous materials at 40° C./75% RH are recommended.

[4] = Automated moisture sorption/desorption (moisture balance); settings: for wt gain from 5 to 95% RH: sorption 5 to 95% RH; for Post-moisture sorption/desorption XRPD form: sorption from 5% RH to 95% RH, desorption from 95% RH to 5% RH
Experimental: Moisture sorption/desorption data were collected on a VTI SGA-100 Vapor Sorption Analyzer. Sorption and desorption data were collected over a range of 5% to 95% relative humidity (RH) at 10% RH intervals under a nitrogen purge. Samples were not dried prior to analysis. Equilibrium criteria used for analysis were less than 0.0100% weight change in 5 minutes, with a maximum equilibration time of 3 hours if the weight criterion was not met. Data were not corrected for the initial moisture content of the samples. NaCl and PVP were used as calibration standards.

[5] = Vapor stressing / vapor diffusion of amorphous rifaximin; settings: for Form obtained in vapor diffusion experiment: water as antisolvent
Experimental: (§1) Vapor stressing experiments were done on amorphous material from two preparations: lyophilization from p-dioxane:water 1:1 and crash precipitation from ethyl acetate with heptane. […] The majority of the stressed samples appeared as clear red solutions after 6 days. Those solutions were placed in vials of antisolvent for vapor diffusion. Dry and wet milling experiments were conducted on amorphous materials from the two preparations mentioned above. Amorphous materials were recovered from the dry milling experiments.

[6] = Milling experiments for amorphous materials; settings: 10 min. at 30 Hz, scraped sides, 10 min. at 30 Hz (dry milling)
Experimental: as §1
A solid sample of rifaximin was charged to a milling container with a milling ball. Samples were milled for 5 or 15 minute intervals (2×5 minutes, 2×15 minutes, and 3×15 minutes) at 30 Hz using a Retsch MM200 mixer mill. Solids were scraped from the sides of the vial after each interval.

[7] = first sample of Table 3 (by elimination: lyophilization in p-dioxane:water 1:1)
[8] = second sample of Table 3 (crash precipitation from ethyl acetate with heptane)

XRPD Form after drying ([1]; vac oven, 40° C., 1 day): remained unchanged
XRPD Form after drying ([1]; vac oven, 40° C., 1 day, listed as η): η
Solid form after vacuum drying ([1]; vacuum dried (Table 1 column), listed as η): η
Structure (SMILES): CO[C@H]1/C=C/O[C@@]2(C)Oc3c(C)c(O)c4c(O)c(c5c(nc6cc(C)ccn65)c4c3C2=O)NC(=O)/C(C)=C\C=C\[C@H](C)[C@H](O)[C@@H](C)[C@@H](O)[C@@H](C)[C@H](OC(C)=O)[C@@H]1C [Form η]

DVS weight gain from 5-95% RH [3, 7]: 8.364% eight gain from 5-95% RH
DVS weight loss at 5% RH [3, 7]: 0.100% weight loss at 5% RH
DVS weight loss from 95-5% RH [3, 7]: 10.989% weight loss from 95-5% RH
DVS weight loss at 5% RH ([3]; second sample of Table 3 (DSC endo 79/204: crash precipitation from ethyl acetate with heptane)): 1.606% weight loss at 5% RH
DVS weight gain from 5-95% RH [3, 8]: 7.843% weight gain from 5-95% RH
DVS weight loss from 95-5% RH [3, 8]: 9.172% weight loss from 95-5% RH
wt loss from 95 to 5% RH ([4]; desorption 95 to 5% RH, listed as Rifaximin Amorphous): 11.3% wt loss from 95 to 5% RH
wt loss upon equilibration at 5% RH ([4]; equilibration at 5% RH, listed as Rifaximin Amorphous): 0.7% wt loss upon equilibration at 5% RH
Hygroscopicity ([4]; moisture balance): hygroscopic
wt gain from 5 to 95% RH ([4]; listed as Amorphous rifaximin): 11.6%
wt gain from 5 to 95% RH ([4]; listed as Rifaximin Amorphous): 11.6% wt gain from 5 to 95% RH
Post-moisture sorption/desorption XRPD form ([4]; listed as Amorphous): amorphous
Post-moisture sorption/desorption XRPD form ([4]; listed as Amorphous rifaximin): amorphous
Post-moisture sorption/desorption XRPD form ([4]; listed as Rifaximin Amorphous): amorphous
Final Form (XRPD) ([2]; 43% RH, 5 days): amorphous
Final Form (XRPD) ([2]; 43% RH, 5 days, listed as Amorphous): amorphous
Final Form (XRPD) ([2]; 43% RH, 5 days, listed as amorphous rifaximin): remained amorphous
Final Form (XRPD) ([2]; 58% RH, 5 days): amorphous
Final Form (XRPD) ([2]; 58% RH, 8 days): remained amorphous
RH stability: solid form after exposure, 58% RH ([2]; 58% RH, duration not printed in Table 1, am = amorphous): am
Final Form (XRPD) ([2]; 75% RH, 2 days, listed as amorphous rifaximin): remained amorphous
Final Form (XRPD) ([2]; 75% RH, 5 days): amorphous
RH stability: solid form after exposure, 75% RH ([2]; 75% RH, duration not printed in Table 1, am = amorphous): am
XRPD Result after stressing ([5]; DCM, VD w/ IPE, 11 days): amorphous
XRPD Result after stressing ([5]; MEK, VD w/ IPE, 11 days): amorphous
Form obtained in vapor diffusion experiment ([5]; methanol): Form β
Form obtained in vapor diffusion experiment ([5]; tetrahydrofuran): Form β
XRPD Result after stressing ([5]; toluene, VS, RT, 6 days, listed as Rifaximin, Amorphous): amorphous
XRPD Result after stressing ([5]; toluene, VS, RT, 6 days, listed as amorphous material): no peaks by XRPD
XRPD Result after stressing ([5]; water, VS, RT, 15 days): amorphous
Structure (SMILES): CO[C@H]1/C=C/O[C@@]2(C)Oc3c(C)c(O)c4c(O)c(c5c(nc6cc(C)ccn65)c4c3C2=O)NC(=O)/C(C)=C\C=C\[C@H](C)[C@H](O)[C@@H](C)[C@@H](O)[C@@H](C)[C@H](OC(C)=O)[C@@H]1C [amorphous]

XRPD Result after milling [6]: amorphous
Structure (SMILES): CO[C@H]1/C=C/O[C@@]2(C)Oc3c(C)c(O)c4c(O)c(c5c(nc6cc(C)ccn65)c4c3C2=O)NC(=O)/C(C)=C\C=C\[C@H](C)[C@H](O)[C@@H](C)[C@@H](O)[C@@H](C)[C@H](OC(C)=O)[C@@H]1C [crash amorphous rifaximin]

Hygroscopicity (DVS) ([3]; 5 to 95% relative humidity): moderately hygroscopic
DVS uptake of water (weight gain) ([3]; from 5 to 95% relative humidity): approximately 8%
Crystallization of post-DVS sample ([3]; post-DVS): Crystallization was not observed
Structure (SMILES): CO[C@H]1/C=C/O[C@@]2(C)Oc3c(C)c(O)c4c(O)c(c5c(nc6cc(C)ccn65)c4c3C2=O)NC(=O)/C(C)=C\C=C\[C@H](C)[C@H](O)[C@@H](C)[C@@H](O)[C@@H](C)[C@H](OC(C)=O)[C@@H]1C [lyophilized amorphous rifaximin]

The remaining lines, values behind:

Structure (SMILES): CO[C@H]1/C=C/O[C@@]2(C)Oc3c(C)c(O)c4c(O)c(c5c(nc6cc(C)ccn65)c4c3C2=O)NC(=O)/C(C)=C\C=C\[C@H](C)[C@H](O)[C@@H](C)[C@@H](O)[C@@H](C)[C@H](OC(C)=O)[C@@H]1C [Form ε, reference compound]
XRPD Form after drying ([1]; vac oven 60-65° C., 3 days, listed as ε): ε dry

Structure (SMILES): CO[C@H]1/C=C/O[C@@]2(C)Oc3c(C)c(O)c4c(O)c(c5c(nc6cc(C)ccn65)c4c3C2=O)NC(=O)/C(C)=C\C=C\[C@H](C)[C@H](O)[C@@H](C)[C@@H](O)[C@@H](C)[C@H](OC(C)=O)[C@@H]1C [Form ζ]
XRPD Form after drying ([1]; air dry): γ
XRPD Form after drying ([1]; open vial in hood): γ
XRPD Form after storage ([1]; stored in refrigerator 3 weeks): ζ
XRPD Form after drying ([1]; vac dry): γ + η
XRPD Form after drying ([1]; vac oven, 40° C., 1 day): remained unchanged
XRPD Form after drying ([1]; vac oven, 45° C., 2 days): η
XRPD Form after drying ([1]; vac oven, ambient, 1 day): Form η
XRPD Form after drying ([1]; vac oven, ambient, 1 day, listed as ζ): η
Solid form after vacuum drying ([1]; vacuum dried (Table 1)): η or and γ + η
Final Form (XRPD) ([2]; 43% RH, 3 days): Form γ
Final Form (XRPD) ([2]; 43% RH, 3 days, listed as ζ): γ
Final Form (XRPD) ([2]; 58% RH, 3 days): Form γ-1 (ζ)
Final Form (XRPD) ([2]; 75% RH, 3 days): Form γ-1 (ζ)
Final Form (XRPD) ([2]; 94% RH, 3 days): Form β+γ-1 (ζ); also recorded: Form β30 γ-1 (ζ)
Final Form (XRPD) ([2]; stability chamber, 75% RH at 40° C., 1 day): ζ + γ^e
